Assay results as given in patent publication US6645973B1, “Spiro(2h-1-benzopyran-2,4-piperidine)derivatives as glycine transport inhibitors” (Akzo Nobel, priority 1999, dated 2003).
Counter-ions that a name gives are not always drawn.

target: T1, human GlyT-1b transporter (Homo sapiens, UniProt P48067); assay: Glycine uptake in CHO cells heterologously expressing the human GlyT-1b transporter ([3H]glycine uptake); format: cell-based; details: CHO cells stably expressing hGlyT-1b, 10 minutes, 37° C.
T1 construct: expressed in transfected cells; host or cells: CHO cells, stably transfected (pcDNA3, Geneticin selection)
T1 sequence (P48067 1-652 isoform P48067-3): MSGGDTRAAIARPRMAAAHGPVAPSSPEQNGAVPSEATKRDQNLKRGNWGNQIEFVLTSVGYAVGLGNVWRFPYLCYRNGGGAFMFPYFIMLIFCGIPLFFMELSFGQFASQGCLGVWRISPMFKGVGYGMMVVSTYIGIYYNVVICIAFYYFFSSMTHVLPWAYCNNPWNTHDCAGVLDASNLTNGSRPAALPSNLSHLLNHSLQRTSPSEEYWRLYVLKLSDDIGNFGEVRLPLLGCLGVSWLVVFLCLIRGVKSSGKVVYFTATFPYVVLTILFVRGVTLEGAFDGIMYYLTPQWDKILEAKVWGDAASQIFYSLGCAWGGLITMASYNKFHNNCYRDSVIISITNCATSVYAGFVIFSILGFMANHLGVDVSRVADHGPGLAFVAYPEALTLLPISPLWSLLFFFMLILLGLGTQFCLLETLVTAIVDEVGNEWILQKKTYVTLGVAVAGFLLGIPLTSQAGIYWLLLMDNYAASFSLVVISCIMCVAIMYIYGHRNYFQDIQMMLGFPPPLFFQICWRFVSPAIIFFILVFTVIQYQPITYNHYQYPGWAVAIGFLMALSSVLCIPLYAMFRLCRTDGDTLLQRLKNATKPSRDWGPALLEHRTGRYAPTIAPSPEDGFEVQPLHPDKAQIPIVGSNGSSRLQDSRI
Description: Method for Determination of Glycine Uptake in CHO Cells Heterologously Expressing the Human GlyT-1b Transporter
A: Cloning: cDNA was generated by PCR according to the method described by Kim, K.-M. et al. Mol. Pharmacol. 1994, 45, 608-617. Sequence was verified by dideoxy sequencing using the ALF DNA sequencer™ (Pharmacia) and cloned into the expression construct pcDNA3 (Invitrogen).
B: Transfection: Transfection of hGlyT-1b into CHO cells was performed using a standard calcium phosphate technique as described by Sambrook, J. et al. (1989) in Molecular Cloning: A Laboratory Manual, Cold Spring Harbor Laboratory, Cold Spring Harbor, N.Y.
C: Selection: Stably transfected cells were selected for 1 week in growth medium containing 1 mg.cm^−3 Geneticin. Individual clones were picked for further analysis and positives passaged routinely as described below.
D: Culture conditions: Cells stably expressing; the hGlyT-1b gene were cultured at 37° C. in a 5% C02 atmosphere in DMEM—NUT.MIX. F12 with Glutamax-1 (Gibco) containing Geneticin (0.5 mg.cm^−3, Gibco) and supplemented with 10% Fetalclone II (Hyclone). Maintenance culture was carried out in standard 80 cm^2 ventilated flasks (2×10^−6 m filter, Nunc) and cells were subcultured by trypsinisation (Sigma) when confluent.
E: Assay Procedure: Cells for uptake studies were plated in 96 well plates (17,000 cells per well) in the absence of Geneticin and cultured for 48 h before use. To measure glycine transport, cells were washed twice with Hanks' balanced salt solution (HBSS) pre-warmed to 37° C. and excess fluid removed before addition of test compounds dissolved in 0.200 cm^3 HBSS. Plates were incubated at 37° C. for 5 minutes before addition of [^3H]glycine (0.050′cm^3, 150×10^−6 M, 248 Bq.nmol^−1, NEN) and incubation continued for a further 10 minutes. Uptake was terminated by washing cells with ice-cold HBSS before removal of excess fluid and addition of 0.200 cm^3 scintillation cocktail to each well. Plates were sealed with adhesive film, shaken to ensure samples were homogenous before scintillation counting in a plate counter.
F: Analysis: Data were analysed using standard curve fitting procedures to produce a plC50 value for active compounds (where plC50 is the negative logarithm of the concentration of test compound causing 50% inhibition of uptake).

SMILES	Inhibition of glycine transport by hGlyT-1, pIC50
Cl.O=C(O)CN1CCC2(C=C(c3ccc4c(c3)OC(F)(F)O4)c3ccccc3O2)CC1 [Example 33, 1′-Carboxymethyl-4-(2,2-difluoro-1,3-benzodioxolo)spiro[2H-1-benzopyran-2,4′-piperidine]hydrochloride]	6.2
Cl.O=C(O)CN1CCC2(C=C(c3ccc4c(c3)OCO4)c3ccccc3O2)CC1 [Example 14, 4-(1,3-Benzodioxolo)-1′-carboxymethylspiro[2H-1-benzopyran-2,4′-piperidine]hydrochloride]	6.1
Cc1ccc(C2=CC3(CCN(CC(=O)O)CC3)Oc3ccccc32)cc1.Cl [Example 4, 1′-Carboxymethyl-4-(4-methylphenyl)spiro[2H-1-benzopyran-2,4′-piperidine]hydrochloride]	6.3

same assay, conditions: CHO cells stably expressing hGlyT-1b, 10 minutes, 37° C., read-out: Inhibition of glycine transport by hGlyT-1, pIC50 (converted)

IC50	SMILES
251 nM	C=CCOc1c(F)cc(C2=CC3(CCN(CC(=O)O)CC3)Oc3ccccc32)cc1F [Example 55, 4-(4-Allyloxy-3,5-difluorophenyl)-1′-carboxymethylspiro[2H-1-benzopyran-2,4′-piperidine]hydrochloride]
501 nM	CCCOc1ccc(C2=CC3(CCN(CC(=O)O)CC3)Oc3ccccc32)cc1F [Example 48, 1′-Carboxymethyl-4-(3-fluoro-4-n-propoxyphenyl)spiro[2H-1-benzopyran-2,4′-piperidine]hydrochloride]
1000 nM	O=C(O)CN1CCC2(C=C(c3ccc(Cl)cc3)c3ccccc3O2)CC1 [Example 2, 1′-Carboxymethyl-4-(4-chlorophenyl)spiro[2H-1-benzopyran-2,4′-piperidine]hydrochloride]
251 nM	CN(C)c1c(F)cc(C2=CC3(CCN(CC(=O)O)CC3)Oc3ccccc32)cc1F [Example 38, 1′-Carboxymethyl-4-(3,5-difluoro-4-dimethylaminophenyl)spiro[2H-1-benzopyran-2,4′-piperidine]hydrochloride]
631 nM	O=C(O)CN1CCC2(C=C(c3ccc4ccccc4c3)c3ccccc3O2)CC1 [Example 10, 1′-Carboxymethyl-4-(2-naphthyl)spiro[2H-1-benzopyran-2,4′-piperidine]hydrochloride]
398 nM	CN(C)c1ccc(C2=CC3(CCN(CC(=O)O)CC3)Oc3ccccc32)cc1F [Example 37, 1′-Carboxymethyl-4-(4-dimethylamino-3-fluorophenyl)spiro[2H-1-benzopyran-2,4′-piperidine]hydrochloride]
501 nM	Cc1ccc(C2=CC3(CCN(CC(=O)O)CC3)Oc3cc(Cl)ccc32)cc1F [Example 35, 1′-Carboxymethyl-7-chloro-4-(3-fluoro-4-methylphenyl)spiro[2H-1-benzopyran-2,4′-piperidine]hydrochloride]
501 nM	O=C(O)CN1CCC2(C=C(c3ccc(Cl)c(F)c3)c3ccccc3O2)CC1 [Example 8, 1′-Carboxymethyl-4-(4-chloro-3-fluorophenyl)spiro[2H-1-benzopyran-2,4′-piperidine]hydrochloride]
398 nM	COc1c(F)cc(C2=CC3(CCN(CC(=O)O)CC3)Oc3ccccc32)cc1F [Example 36, 1′-Carboxymethyl-4-(3,5-difluoro-4-methoxyphenyl)spiro[2H-1-benzopyran-2,4′-piperidine]hydrochloride]
316 nM	Cc1ccc(C2=CC3(CCN(CC(=O)O)CC3)Oc3ccccc32)cc1F [Example 28, 1′-Carboxymethyl-4-(3-fluoro-4-methylphenyl)spiro[2H-1-benzopyran-2,4′-piperidine]hydrochloride]
398 nM	CC(C)(C)c1ccc(C2=CC3(CCN(CC(=O)O)CC3)Oc3ccccc32)cc1 [Example 12, 1′-Carboxymethyl-4-(4-tert-butylphenyl)spiro[2H-1-benzopyran-2,4′-piperidine]hydrochloride]
251 nM	O=C(O)CN1CCC2(C=C(c3cc(F)c(OCC(F)(F)F)c(F)c3)c3ccccc3O2)CC1 [Example 59, 1′-Carboxymethyl-4-(3,5-difluoro-4-trifluoroethoxyphenyl)spiro[2H-1-benzopyran-2,4′-piperidine]hydrochloride]
631 nM	COc1ccc(C2=CC3(CCN(CC(=O)O)CC3)Oc3ccccc32)cc1F [Example 11, 1′-Carboxymethyl-4-(3-fluoro-4-methoxyphenyl)spiro[2H-1-benzopyran-2,4′-piperidine]hydrochloride]
251 nM	C#CCOc1c(F)cc(C2=CC3(CCN(CC(=O)O)CC3)Oc3ccccc32)cc1F [Example 57, 1′-Carboxymethyl-4-(3,5-difluoro-4-propargyloxyphenyl)spiro[2H-1-benzopyran-2,4′-piperidine]hydrochloride]
631 nM	CN(C)c1ccc(C2=CC3(CCN(CC(=O)O)CC3)Oc3ccccc32)cc1 [Example 24, 1′-Carboxymethyl-4-[4-(N,N-dimethylamino)phenyl]spiro[2H-1-benzopyran-2,4′-piperidine]hydrochloride]

SMILES	IC50
CCCCOc1ccc(C2=CC3(CCN(CC(=O)O)CC3)Oc3ccccc32)cc1F [Example 49, 1′-Carboxymethyl-4-(3-fluoro-4-n-butoxyphenyl)spiro[2H-1-benzopyran-2,4′-piperidine]hydrochloride]	794 nM
O=C(O)CN1CCC2(C=C(c3ccc(Br)c(F)c3)c3ccccc3O2)CC1 [Example 39, 4-(4-Bromo-3-fluorophenyl)-1′-carboxymethylspiro[2H-1-benzopyran-2,4′-piperidine]hydrochloride]	794 nM

tested on: not given; assay: not given; details: not given

melting point	SMILES
263 to 274 °C	O=C(O)CN1CCC2(C=C(c3ccc(Cl)c(F)c3)c3ccccc3O2)CC1 (as salt: hydrochloride) [Example 8, 1′-Carboxymethyl-4-(4-chloro-3-fluorophenyl)spiro[2H-1-benzopyran-2,4′-piperidine]hydrochloride]
244 to 251 °C	O=C(O)CN1CCC2(C=C(c3cc(F)c(OCC(F)(F)F)c(F)c3)c3ccccc3O2)CC1 (as salt: hydrochloride) [Example 59, 1′-Carboxymethyl-4-(3,5-difluoro-4-trifluoroethoxyphenyl)spiro[2H-1-benzopyran-2,4′-piperidine]hydrochloride]
238 to 250 °C	CN(C)c1ccc(C2=CC3(CCN(CC(=O)O)CC3)Oc3ccccc32)cc1 (as salt: hydrochloride) [Example 24, 1′-Carboxymethyl-4-[4-(N,N-dimethylamino)phenyl]spiro[2H-1-benzopyran-2,4′-piperidine]hydrochloride]
293 to 298 °C (dec.)	O=C([O-])CN1CCC2(C=C(c3ccccc3)c3cc(F)ccc3O2)CC1.[Li+]
252 to 261 °C	COc1ccc(C2=CC3(CCN(CC(=O)O)CC3)Oc3ccccc32)cc1F (as salt: hydrochloride) [Example 11, 1′-Carboxymethyl-4-(3-fluoro-4-methoxyphenyl)spiro[2H-1-benzopyran-2,4′-piperidine]hydrochloride]
231 to 242 °C	CN(C)c1c(F)cc(C2=CC3(CCN(CC(=O)O)CC3)Oc3ccccc32)cc1F (as salt: hydrochloride) [Example 38, 1′-Carboxymethyl-4-(3,5-difluoro-4-dimethylaminophenyl)spiro[2H-1-benzopyran-2,4′-piperidine]hydrochloride]
274 to 278 °C (dec.)	O=C([O-])CN1CCC2(CC1)CC(c1ccc(F)cc1)c1ccccc1O2.[Li+] (stereo not drawn)
